The values below are quoted from earlier work in US12692503B2, “Generation of acyl amino acids” (Modular Genetics, Inc., priority 2007, dated 2026).

SMILES strings stand for the structures. *1 amine or outer side, *2 acyl side, *3 side chain or, on linkers, in order; H or OH if unused. Where a SMILES comes first, the peptide text is derived from it. Bridges are numbered along the chain shown (N, C = ends). [ ]: non-standard residue; d: D form. X1 = CC(C)CCCCCCCCC[C@H](CC(=O)[*:1])O[*:2]

For this series the following is noted: organic solvents and water.

`CC(C)CCCCCCCCC[C@@H]1CC(=O)N[C@@H](CCC(=O)O)C(=O)N[C@@H](CC(C)C)C(=O)N[C@H](CC(C)C)C(=O)N[C@@H](C(C)C)C(=O)N[C@@H](CC(=O)O)C(=O)N[C@H](CC(C)C)C(=O)N[C@@H](CC(C)C)C(=O)O1` [surfactin] (EL[dL]VD[dL]L; linker N-C via X1): the solubility result is “soluble in both organic solvents and water”.
